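How tested: cells in 96-well plates exposed to compound for 48 hours at five concentrations. GI50: concentration for 50% inhibition of growth.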 The source made the active and inactive calls. No stated cut-off is given here; in the data, active = GI50 up to about 1.1 µM and inactive = higher.
How the values were obtained:
Assay in all cases: inhibition of tumour cell growth, NCI panel, 48 h
[1] = tested on: SK-MEL-2
[2] = tested on: M14
[3] = tested on: SK-MEL-28
[4] = tested on: PC-3
[5] = tested on: SNB-75
[6] = tested on: UACC-62
[7] = tested on: OVCAR-5
[8] = tested on: NCI-H23
[9] = tested on: MCF7
[10] = tested on: SNB-19
[11] = tested on: HL-60
[12] = tested on: ACHN
[13] = tested on: Hs-578T
[14] = tested on: DU-145
[15] = tested on: NCI-H522
[16] = tested on: T47D
[17] = tested on: HOP-92
[18] = tested on: A498
[19] = tested on: CAKI-1
[20] = tested on: SR

Measured: GI50

COc1cc(/C=C/C(=O)CC(=O)/C=C/c2ccc(OC(=O)CCCCC3CCSS3)c(OC)c2)ccc1OC(=O)CCCCC1CCSS1 (stereo not given)
inactive: [1] > 100 µM | [2] > 100 µM | [3] > 100 µM | [4] > 100 µM | [5] > 100 µM | [6] > 100 µM | [7] > 100 µM | [8] > 100 µM | [9] > 100 µM | [10] > 100 µM | [11] > 100 µM | [12] > 100 µM | [13] > 100 µM | [14] > 100 µM | [15] > 100 µM

O=C(O)c1ccccc1-c1ccccc1C(=O)Nc1ccc2c(c1)nc(O)c1ccccc12
inactive: [1] 87.9 µM | [2] > 100 µM | [3] > 100 µM | [4] > 100 µM | [16] > 100 µM | [17] > 100 µM | [5] 93.3 µM | [18] 34.3 µM | [6] 59.6 µM | [7] > 100 µM | [8] > 100 µM | [9] > 100 µM | [10] 83.4 µM | [11] 94.8 µM | [12] > 100 µM | [13] 98.4 µM | [19] > 100 µM | [14] > 100 µM | [15] 61.8 µM

O=C(/C=C/c1ccc(-c2ccccc2)cc1)NCc1ccc(C(=O)NCc2ccccc2)cc1
inactive: [1] > 100 µM | [2] > 100 µM | [3] > 100 µM | [4] > 100 µM | [16] > 100 µM | [17] > 100 µM | [5] > 100 µM | [18] > 100 µM | [6] > 100 µM | [7] > 100 µM | [8] 90.2 µM | [9] > 100 µM | [10] > 100 µM | [12] > 100 µM | [13] > 100 µM | [19] > 100 µM | [14] > 100 µM | [15] > 100 µM

O=C1/C(=C/c2cccc(Cl)c2)CCCc2ccccc21
inactive: [1] 17.4 µM | [2] 16.3 µM | [3] 17.3 µM | [4] 18.3 µM | [17] 21.1 µM | [5] 15.6 µM | [6] 13.7 µM | [7] 16.5 µM | [8] 16.1 µM | [9] 6.03 µM | [10] 14.9 µM | [11] 11.9 µM | [12] 16.1 µM | [13] 15.5 µM | [19] 24.1 µM | [14] 19.2 µM | [20] 11.6 µM | [15] 14.5 µM

c1ccc(C2=Nc3nc4ccccc4n3C(c3ccccc3)C2)cc1 (stereo not given)
inactive: [1] > 100 µM | [2] > 100 µM | [3] > 100 µM | [4] > 100 µM | [16] > 100 µM | [17] 24.6 µM | [5] 27.9 µM | [18] > 100 µM | [6] > 100 µM | [7] > 100 µM | [8] > 100 µM | [9] > 100 µM | [10] 44.8 µM | [11] > 100 µM | [12] > 100 µM | [13] 45.5 µM | [19] > 100 µM | [20] > 100 µM | [15] > 100 µM

CCOC(=O)CCN1C(=O)c2ccc(NC(=O)C(=O)O)cc2S1(=O)=O
inactive: [1] > 100 µM | [2] > 100 µM | [3] > 100 µM | [4] > 100 µM | [17] > 100 µM | [5] > 100 µM | [18] > 100 µM | [6] > 100 µM | [7] > 100 µM | [8] > 100 µM | [9] > 100 µM | [10] > 100 µM | [11] > 100 µM | [12] > 100 µM | [13] > 100 µM | [19] > 100 µM | [14] > 100 µM | [20] > 100 µM | [15] > 100 µM

O=C(O)c1nc2ccc(C(F)(F)F)cc2nc1Nc1ccc(F)cc1
inactive: [1] 15.3 µM | [3] 37.6 µM | [4] 15 µM | [5] 23.3 µM | [18] 16.9 µM | [6] 11.7 µM | [7] 28.4 µM | [8] 15.2 µM | [9] 23 µM | [10] > 10 µM | [11] 12.6 µM | [12] 21.4 µM | [13] 36.4 µM | [19] 30 µM | [14] 21.2 µM | [20] 12.1 µM | [15] 6.07 µM

— ChEMBL document CHEMBL1201862, “PubChem BioAssay data set” (2004)
